Values quoted from earlier work, collected in US20260216324A1, “QS-21 COMPOSITIONS AND PROCESSES FOR PRODUCING THE SAME AND USES THEREFOR” (priority 2022, published 2026).

Assays:
[1] = U.S. Pat. No. 5,583,112 (Example 11), isomers derived from bark
[2] = U.S. Pat. No. 5,583,112 (Example 11), isomers derived from bark; remark: listed apart in the source
[3] = prior art; saponins purified from Quillaja saponaria bark extract

Compound	toxicity compared to standard 65:35 QS-21 [1]	adjuvanticity compared to standard 65:35 QS-21 [2]	adjuvant activity [3]
CC[C@H](C)[C@H](C[C@H](O)CC(=O)O[C@@H]1[C@H](O)[C@@H](O[C@@H]2O[C@@H](C)[C@H](O[C@@H]3OC[C@@H](O)[C@H](O[C@@H]4OC[C@](O)(CO)[C@H]4O)[C@H]3O)[C@@H](O)[C@H]2O)[C@H](OC(=O)[C@]23CCC(C)(C)C[C@H]2C2=CC[C@@H]4[C@@]5(C)CC[C@H](O[C@@H]6O[C@H](C(=O)O)[C@@H](O)[C@H](O[C@@H]7OC[C@@H](O)[C@H](O)[C@H]7O)[C@H]6O[C@@H]6O[C@H](CO)[C@H](O)[C@H](O)[C@H]6O)[C@@](C)(C=O)[C@@H]5CC[C@@]4(C)[C@]2(C)C[C@H]3O)O[C@@H]1C)OC(=O)C[C@@H](O)C[C@H](O[C@@H]1O[C@@H](CO)[C@H](O)[C@H]1O)[C@@H](C)CC (single isomer, unassigned) [purified apiose isomer]	comparable in both adjuvanticity and toxicity to the standard 65:35 (apiose:xylose ratio) QS-21	comparable in both adjuvanticity and toxicity to the standard 65:35 (apiose:xylose ratio) QS-21	
CC[C@H](C)[C@H](C[C@H](O)CC(=O)O[C@@H]1[C@H](O)[C@@H](O[C@@H]2O[C@@H](C)[C@H](O[C@@H]3OC[C@@H](O)[C@H](O[C@@H]4OC[C@@H](O)[C@H](O)[C@H]4O)[C@H]3O)[C@@H](O)[C@H]2O)[C@H](OC(=O)[C@]23CCC(C)(C)C[C@H]2C2=CC[C@@H]4[C@@]5(C)CC[C@H](O[C@@H]6O[C@H](C(=O)O)[C@@H](O)[C@H](O[C@@H]7OC[C@@H](O)[C@H](O)[C@H]7O)[C@H]6O[C@@H]6O[C@H](CO)[C@H](O)[C@H](O)[C@H]6O)[C@@](C)(C=O)[C@@H]5CC[C@@]4(C)[C@]2(C)C[C@H]3O)O[C@@H]1C)OC(=O)C[C@@H](O)C[C@H](O[C@@H]1O[C@@H](CO)[C@H](O)[C@H]1O)[C@@H](C)CC (single isomer, unassigned) [purified xylose isomer]	comparable in both adjuvanticity and toxicity to the standard 65:35 (apiose:xylose ratio) QS-21	comparable in both adjuvanticity and toxicity to the standard 65:35 (apiose:xylose ratio) QS-21	
QS-17			adjuvant active
QS-18			adjuvant active
